This note sets out measurements from US12509447B2, “Small molecule compound” (Technoderma Medicines Pte Ltd, priority 2019, dated 2025).

The target in assay [1] is JAK1 (Homo sapiens, UniProt P23458). The assay can be described thus: Inhibition of JAK kinase activity, EZ Reader microfluidic phosphorylation of peptide substrate: JAK1. The format is biochemical. The conditions noted are these: JAK1 kinase 20 nM; highest final concentration 10 μM, 1:3 serial dilution, 8 points, duplicates. From the text:
(§1) EZ Reader available from PerkinElmer can be used for detecting the phosphorylation of polypeptide substrates catalyzed by kinases. This device is based on microfluidic separation technology, and can directly detect fluorescence labeled substrates and products. The separation step is achieved in a microfluidic chip by controlling the pressure and electric field intensity. In a kinase experiment, the product conversion rate is generally controlled at 20-30%. This biological assay method is used for identifying the inhibitory effect of the compounds on JAK.
(§2) The compound powder was dissolved in DMSO, sealed and stored in a refrigerator at −20° C. The in-house compound Ref1 was used as a positive control for testing of JAK1, JAK2 and Tyk2, and Ref2 was used as a positive control for testing of JAK3.
(§3) • S2.1. 1M HEPES buffer: 0.5M HEPES free acid and 0.5M HEPES sodium salt are weighed, added into ultrapure water for dissolution, brought to a desired volume, filtered and stored in a refrigerator at 4° C. • S2.2. 40 mM ATP solution: dissolved in a 50 mM HEPES buffer solution, prepared into 40 mM, aliquoted, and cryopreserved in a refrigerator at −20° C. • S2.3. 0.5% Tween 20: 100% Tween 20 was diluted with ultrapure water, and stored in a refrigerator at 4° C. • S2.4. 35% bovine serum albumin: a 35% bovine serum albumin solution is prepared in ultrapure water, aliquoted, and stored in a refrigerator at −20° C. • S2.5. 1M dithiothreitol solution: dithiothreitol is formulated into a 1M solution with ultrapure water, aliquoted, and stored in a refrigerator at −20° C. • S2.6. 0.5 mM Jaktide Peptide substrate solution: it is dissolved in 50 mM HEPES to 0.5 mM, aliquoted, and stored in a refrigerator at −20° C. • S2.7. 0.5 mM IRStide Peptide substrate solution: it is dissolved in 50 mM HEPES to 0.5 mM, aliquoted, and stored in a refrigerator at −20° C. • S2.8. Assay Buffer: 20 mM HEPES buffer, pH 7.4, 10 mM magnesium chloride, 0.01% bovine serum albumin BSA, 0.0005% Tween-20, and a 1 mM dithiothreitol solution. • S2.9. Stop Buffer: 180 mM HEPES buffer, 20 mM ethylenediamine tetraacetic acid (EDTA), and 0.2% Coating Reagent 3. • S2.10. Separation Buffer: 100 mM HEPES buffer, 10 mM EDTA, 0.0005% Tween 20, 0.1% Coating Reagent 3, and 1% dimethyl sulfoxide. 3. Experimental Procedures • S3.1. Preparation of compound plate
(§4) The compound is dissolved in dimethyl sulfoxide to 10 mM, a certain volume is taken and diluted to 0.6 mM, 10 μl of the diluted 0.6 mM solution is taken and added into a 384 microplate or 1:3 serial dilution, with a total of 8 concentration points. • S3.2. Compound layout
(§5) • positive control (HPE1): Ref1, final concentration: 10 μM • positive control (HPE1): Ref2, final concentration: 10 μM • negative control (ZPE): DMSO, with a final concentration of 1.6% • Compound: the highest final concentration at 10 μM, 1:3 serial dilution, with 8 concentration points and in duplicates. 4. Experimental operation steps • S4.1. the experimental plate was added with 250 nl of the compound per well with ECHO, and centrifuged at 1,000 rpm for 1 minute; • S4.2. the precipitate was added with 5 μl of the experimental buffer, and shaken for several seconds to fully dissolve the compound; • S4.3. the solution was added with 5 μl of a 3× substrate solution, as well as 5 μl of a 3× kinase solution, and centrifuged at 800 rpm for 1 minute; • S4.4. The final concentrations of JAK1, JAK2, JAK3 and Tyk2 kinases in the reaction system are 20, 1, 1 and 1 nM, respectively. • S4.5. the reaction system is incubated at room temperature, wherein the incubation time of each kinase is different, and there are differences in incubation time of different batches of kinases. • S4.6. When the reaction reaches 20%-30%, the reaction system is added with 15 μl of the stop buffer to terminate the reaction, and centrifuged at 1,000 rpm for 2 minutes. • S4.7. The precipitate was placed onto a EZ Reader for plate reading. • S4.8. […]

In assay [2] the target is Tyk2 (Homo sapiens, UniProt P29597). The assay is described as follows: Inhibition of JAK kinase activity, EZ Reader microfluidic phosphorylation of peptide substrate: Tyk2. The format is biochemical. Conditions: Tyk2 kinase 1 nM; highest final concentration 10 μM, 1:3 serial dilution, 8 points, duplicates.
Sequence of Tyk2 (P29597 whole entry): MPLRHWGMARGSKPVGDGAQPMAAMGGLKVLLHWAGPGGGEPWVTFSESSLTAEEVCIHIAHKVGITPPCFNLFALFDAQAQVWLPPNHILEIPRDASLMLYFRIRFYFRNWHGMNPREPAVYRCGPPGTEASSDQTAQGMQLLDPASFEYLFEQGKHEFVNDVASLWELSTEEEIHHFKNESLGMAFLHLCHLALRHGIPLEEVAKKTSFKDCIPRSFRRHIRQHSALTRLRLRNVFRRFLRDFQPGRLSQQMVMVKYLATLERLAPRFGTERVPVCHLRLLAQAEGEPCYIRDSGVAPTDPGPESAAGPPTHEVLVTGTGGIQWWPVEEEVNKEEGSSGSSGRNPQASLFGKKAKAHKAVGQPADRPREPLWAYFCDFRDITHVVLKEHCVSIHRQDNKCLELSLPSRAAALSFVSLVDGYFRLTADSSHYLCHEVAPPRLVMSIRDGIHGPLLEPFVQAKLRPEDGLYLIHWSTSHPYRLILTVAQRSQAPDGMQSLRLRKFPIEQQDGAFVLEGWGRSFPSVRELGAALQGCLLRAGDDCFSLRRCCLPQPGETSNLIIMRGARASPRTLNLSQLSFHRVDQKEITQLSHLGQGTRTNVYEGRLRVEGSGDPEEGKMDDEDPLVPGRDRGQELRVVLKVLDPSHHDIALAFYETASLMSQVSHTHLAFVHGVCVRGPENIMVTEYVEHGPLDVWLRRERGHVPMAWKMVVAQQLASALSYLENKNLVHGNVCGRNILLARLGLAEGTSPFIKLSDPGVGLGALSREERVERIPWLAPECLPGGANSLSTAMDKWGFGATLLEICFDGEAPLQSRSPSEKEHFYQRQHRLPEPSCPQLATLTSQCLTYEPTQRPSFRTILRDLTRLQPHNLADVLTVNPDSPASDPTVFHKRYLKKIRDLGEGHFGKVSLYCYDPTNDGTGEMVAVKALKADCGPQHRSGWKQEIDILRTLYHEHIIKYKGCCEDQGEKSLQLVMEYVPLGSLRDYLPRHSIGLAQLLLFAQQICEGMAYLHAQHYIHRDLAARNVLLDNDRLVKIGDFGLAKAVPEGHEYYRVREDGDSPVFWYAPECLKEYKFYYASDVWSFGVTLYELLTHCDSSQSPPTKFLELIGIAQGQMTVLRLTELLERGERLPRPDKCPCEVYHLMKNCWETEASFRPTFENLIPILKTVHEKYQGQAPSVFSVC
Text: as §1, §2, §3, §4, §5

Sequence of JAK1 (P23458 whole entry): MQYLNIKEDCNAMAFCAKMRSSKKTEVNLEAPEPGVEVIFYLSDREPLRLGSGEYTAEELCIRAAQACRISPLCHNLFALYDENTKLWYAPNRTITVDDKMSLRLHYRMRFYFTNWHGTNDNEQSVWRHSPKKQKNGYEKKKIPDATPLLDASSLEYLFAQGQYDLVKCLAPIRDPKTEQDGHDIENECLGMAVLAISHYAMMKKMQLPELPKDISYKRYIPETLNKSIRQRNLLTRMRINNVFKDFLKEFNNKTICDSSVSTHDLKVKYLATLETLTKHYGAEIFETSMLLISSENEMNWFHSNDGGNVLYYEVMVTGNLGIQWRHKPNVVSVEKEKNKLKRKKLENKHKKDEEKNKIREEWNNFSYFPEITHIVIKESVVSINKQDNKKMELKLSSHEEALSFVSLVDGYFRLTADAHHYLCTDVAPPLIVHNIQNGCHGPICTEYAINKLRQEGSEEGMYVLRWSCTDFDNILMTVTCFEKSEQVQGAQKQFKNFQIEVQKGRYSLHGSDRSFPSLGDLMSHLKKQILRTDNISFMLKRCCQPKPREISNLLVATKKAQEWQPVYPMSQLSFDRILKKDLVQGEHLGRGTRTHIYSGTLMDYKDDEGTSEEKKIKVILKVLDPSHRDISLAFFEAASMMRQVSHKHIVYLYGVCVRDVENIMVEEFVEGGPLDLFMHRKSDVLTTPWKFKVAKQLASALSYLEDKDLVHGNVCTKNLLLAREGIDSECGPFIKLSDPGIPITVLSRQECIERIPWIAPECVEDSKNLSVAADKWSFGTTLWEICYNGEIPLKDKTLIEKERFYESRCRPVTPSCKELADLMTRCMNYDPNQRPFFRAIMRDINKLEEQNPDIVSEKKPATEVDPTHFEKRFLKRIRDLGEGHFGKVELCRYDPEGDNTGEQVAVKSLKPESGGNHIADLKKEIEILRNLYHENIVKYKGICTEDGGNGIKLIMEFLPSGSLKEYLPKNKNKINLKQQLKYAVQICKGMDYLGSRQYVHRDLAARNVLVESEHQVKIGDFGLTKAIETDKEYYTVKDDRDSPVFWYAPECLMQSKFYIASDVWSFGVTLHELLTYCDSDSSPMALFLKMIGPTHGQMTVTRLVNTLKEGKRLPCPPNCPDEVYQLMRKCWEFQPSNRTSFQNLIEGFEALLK

For `COCC(=O)N1CC(CC#N)(n2cc(-c3ccnc(Nc4cnn(C)c4)n3)cn2)C1` [TDM-180765, 2-(1-(2-methoxyacetyl)-3-(4-(2-((1-methyl-1H-pyrazol-4-yl)amino)pyrimidin-4-yl)-1H-pyrazol-1-yl)azetidin-3-yl)acetonitrile], the half-inhibitory concentration (IC50) in assay [1] and in assay [2] was 1 to 10 µM in each case.

With `COCC(=O)N1CC(CC#N)(n2ccc(-c3ccnc(Nc4cnn(C)c4)n3)c2)C1` [TDM-180769, 2-(1-(2-methoxyacetyl)-3-(3-(2-((1-methyl-1H-pyrazol-4-yl)amino)pyrimidin-4-yl)-1H-pyrrol-1-yl)azetidin-3-yl)acetonitrile], the IC50 in assay [1] and in assay [2] was 1 to 10 µM throughout.

Take `Cn1cc(Nc2nccc(-c3ccn(C4(CC#N)CN(C(=O)CO)C4)c3)n2)cn1` [TDM-180786]: the IC50 in assay [1] and in assay [2] was 1 to 10 µM throughout.

For the compound `Cn1cc(Nc2nccc(-c3cnn(C4(CC#N)CN(C(=O)CO)C4)c3)n2)cn1` [TDM-180810, 2-(1-(2-hydroxyacetyl)-3-(4-(2-((1-methyl-1H-pyrazol-4-yl)amino)pyrimidin-4-yl)-1H-pyrazol-1-yl)azetidin-3-yl)acetonitrile], the concentration for half-maximal inhibition (IC50) in assay [1] and in assay [2] was 1 to 10 µM in each case.

With `Cn1cc(Nc2nccc(-c3ccn(C4(CC#N)CN(C(=O)C5CC5)C4)n3)n2)cn1` [TDM-180858, 2-(1-(cyclopropanecarbonyl)-3-(3-(2-((1-methy 1-1H-pyrazol-4-yl)amino)pyrimidin-4-yl)-1H-pyrazol-1-yl)azetidinpyridin-3-yl)acetonitrile], the IC50 in assay [1] and in assay [2] was 1 to 10 µM throughout.

Regarding `Cn1cc(Nc2nccc(-c3ccn(C4(CC#N)CN(C(=O)C5CC5(F)F)C4)n3)n2)cn1` (centres unmarked) [TDM-180859, 2-(1-(2,2-difluorcyclopropanecarbonyl)-3-(3-(2-((1-methyl-1H-pyrazol-4-yl)amino)pyrimidin-4-yl)-1H-pyrazol-1-yl)azetidin-3-yl)acetonitrile], the IC50 in assay [1] and in assay [2] was 0.1 to 1 µM in each case.

On to `Cn1cc(Nc2nccc(-c3ccn(C4(CC#N)CN(C(=O)CC(F)(F)F)C4)n3)n2)cn1` [TDM-180860, 2-(3-(3-(2-((1-methyl-1H-pyrazol-4-yl)amino)pyrimidin-4-yl)-1H-pyrazol-1-yl)-1-(3,3,3-trifluoropropionyl)azetidin-3-yl)acetonitrile], for which the IC50 in assay [1] and in assay [2] was 0.1 to 1 µM each time.

For the compound `Cn1cc(Nc2nccc(-c3ccn(C4(CC#N)CN(C(=O)CC#N)C4)n3)n2)cn1` [TDM-180861, 3-(3-(cyanomethyl)-3-(3-(2-((1-methyl-1H-pyrazol-4-yl)amino)pyrimidin-4-yl)-1H-pyrazol-1-yl)azetidinpiperazin-1-yl)-3-oxypropionitrile], the IC50 in assay [1] and in assay [2] was 1 to 10 µM each time.

In the case of `Cn1cc(Nc2nccc(-c3ccn(C4(CC#N)CN(S(=O)(=O)CC(F)(F)F)C4)c3)n2)cn1` [TDM-180866, 2-(3-(3-(2-((1-methyl-1H-pyrazol-4-yl)amino)pyrimidin-4-yl)-1H-pyrrol-1-yl)-1-((2,2,2-trifluoroethyl)sulfonyl)azetidin-3-yl)acetonitrile], the IC50 in assay [1] and in assay [2] was less than 0.1 µM each time.

Consider `Cn1cc(Nc2nccc(-c3ccc(C4(CC#N)CN(C(=O)CC#N)C4)cc3)n2)cn1` [TDM-180871, 3-(3-(cyanomethyl)-3-(4-(2-((1-methyl-1H-pyrazol-4-yl)amino)pyrimidin-4-yl)phenyl)azetidin-1-yl)-3-oxopropionitrile], for which the IC50 in assay [1] and in assay [2] was 0.1 to 1 µM in each case.

On to `Cn1cc(Nc2nccc(-c3ccc(C4(CC#N)CN(C(=O)C5CC5(F)F)C4)cc3)n2)cn1` (centres unmarked) [TDM-180872, 2-(1-(2,2-difluorocyclo-1-carbonyl)-3-(4-(2-((1-methyl-1H-pyrazol-4-yl)amino)pyrimidin-4-yl)phenyl)azetidin-3-yl)acetonitrile], for which the IC50 in assay [1] and in assay [2] was 0.1 to 1 µM in each case.

Regarding `Cn1cc(Nc2nccc(-c3ccc(C4(CC#N)CN(C(=O)CC(F)(F)F)C4)cc3)n2)cn1` [TDM-180873, 2-(3-(4-(2-((1-methyl-1H-pyrazol-4-yl)amino)pyrimidin-4-yl)phenyl)-1-(3,3,3-trifluoropropanol)azetidin-3-yl)acetonitrile], the IC50 in assay [1] and in assay [2] was 0.1 to 1 µM in each case.

Regarding `Cn1cc(Nc2nccc(-c3ccc(C4(CC#N)CN(C(=O)C5CC5)C4)cc3)n2)cn1` [TDM-180880, 2-(1-(cyclopropanecarbonyl)-3-(4-(2-((1-methyl-1H-pyrazol-4-yl)amino)pyrimidin-4-yl)phenyl)azetidin-3-yl)acetonitrile], the half-inhibitory concentration (IC50) in assay [1] and in assay [2] was 1 to 10 µM in each case.

As for `Cn1cc(Nc2nccc(-c3ccn(C4(CC#N)CN(S(=O)(=O)C5CCOCC5)C4)n3)n2)cn1` [TDM-180912, 2-(3-(3-(2-((1-methyl-1H-pyrazol-4-yl)amino)pyrimidin-4-yl)-1H-pyrazol-1-yl)-1-((tetrahydro-2H-pyran-4-yl)sulfonyl)azetidin-3-yl)acetonitrile], the figures for the IC50 in assay [1] and in assay [2] were 0.1 to 1 µM and 1 to 10 µM, respectively.

Turning to `Cn1cc(Nc2nccc(-c3ccn(C4(CC#N)CN(S(=O)(=O)C5CC5)C4)n3)n2)cn1` [TDM-180915, 2-(1-(cyclopropylsulfonyl)-3-(3-(2-((1-methyl-1H-pyrazol-4-yl)amino)pyrimidin-4-yl)-1H-pyrazol-1-yl)azetidinpyridin-3-yl)acetonitrile], the 50% inhibitory concentration (IC50) in assay [1] and in assay [2] was 0.1 to 1 µM throughout.

Turning to `CCCS(=O)(=O)N1CC(CC#N)(n2ccc(-c3ccnc(Nc4cnn(C)c4)n3)n2)C1` [TDM-180916, 2-(3-(3-(2-((1-methyl-1H-pyrazol-4-yl)amino)pyrimidin-4-yl)-1H-pyrazol-1-yl)-1-(propylsulfonyl)azacyclobutanpyridin-3-yl)acetonitrile], the IC50 in assay [1] is 0.1 to 1 µM; in assay [2], 1 to 10 µM.

Take `Cn1cc(Nc2nccc(-c3ccn(C4(CC#N)CN(S(=O)(=O)CC(F)(F)F)C4)n3)n2)cn1` [TDM-180918, 2-(3-(3-(2-((1-methyl-1H-pyrazol-4-yl)amino)pyrimidin-4-yl)-1H-pyrazol-1-yl)-1-((2,2,2-trifluoroethyl)sulfonyl)azetidin-3-yl)acetonitrile]: the concentration for half-maximal inhibition (IC50) in assay [1] and in assay [2] was 1 to 10 µM each time.

For the compound `CCS(=O)(=O)N1CC(CC#N)(n2ccc(-c3ccnc(Nc4cnn(C)c4)n3)n2)C1` [TDM-180922, 2-(1-(ethylsulfonyl)-3-(3-(2-((1-methyl-1H-pyrazol-4-yl)amino)pyrimidin-4-yl)-1H-pyrazol-1-yl)azetidinpyridin-3-yl)acetonitrile], the IC50 in assay [1] and in assay [2] was 0.1 to 1 µM each time.

`Cn1cc(Nc2nccc(-c3cnn(C4(CC#N)CN(S(=O)(=O)CCCCl)C4)c3)n2)cn1` [TDM-180925, 2-(1-((3-chloropropyl)sulfonyl)-3-(4-(2-((1-methyl-1H-pyrazol-4-yl)amino)pyrimidin-4-yl)-1H-pyrazol-1-yl)azetidin-3-yl)acetonitrile]: the IC50 in assay [1] and in assay [2] was 0.1 to 1 µM throughout.
